Here are results for 1 compound from US10151753B2, “Microfluidic devices for isolating particles” (The General Hospital Corporation, priority 2013, dated 2018).

The test system of one test is Rec-1 cells. Nature of the test: Ibrutinib-BFL fluorescence imaging of captured cells on the microfluidic device. Format: cell-based. The following applies: Rec-1 mantle cell lymphoma cells, FIG. 24.
The next test deals with Jurkat cells. The description is as above. In kind it is cell-based. To be noted: FIG. 24.

With `Cc1cc(C)n2c1C=C1C=CC(CCC(=O)NCC=CC(=O)N3CCCC(n4nc(-c5ccc(Oc6ccccc6)cc5)c5c(N)ncnc54)C3)=[N+]1[B-]2(F)F` (centres unmarked) [Ibrutinib-BFL], the “fluorescence of cells when incubated with the imaging drug (binding)” value in the test with Rec-1 cells is recorded as “exhibit fluorescence”; in the test on Jurkat cells, “do not exhibit fluorescent”.
